≈ marks a conversion by molar mass, not a printed value.
Legend:
[1] = system: Enterococcus faecalis (ATCC 29212); experiment: broth microdilution MIC (CLSI M07-A9), resazurin; assay type: cell-based; conditions: ATCC29212, 24 h
Procedure, shortened: (§1)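 First, DMSO solutions of the compounds were diluted two-fold across plates containing inoculated Mueller-Hinton broth, pH 7. Next, the plates stood 24 h, and resazurin at 20 μg/mL was then applied for 2 h. Finally, the wells were measured fluorometrically ([…]), and the MIC (μg/mL) was taken as the last well free of growth.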

[2] = system: Klebsiella pneumoniae (NCTC 9633); experiment: broth microdilution MIC (CLSI M07-A9), resazurin; assay type: cell-based; conditions: 24 h
Procedure, shortened: as §1

[3] = system: Escherichia coli (ATCC 35218); experiment: broth microdilution MIC (CLSI M07-A9), resazurin; assay type: cell-based; conditions: ATCC35218, 24 h, read-out: MIC Ec-1
Procedure, shortened: as §1

[4] = system: Listeria monocytogenes (ATCC 1911); experiment: broth microdilution MIC (CLSI M07-A9), resazurin; assay type: cell-based; conditions: ATCC1911, 24 h
Procedure, shortened: as §1

[5] = system: Escherichia coli (ATCC 25922); experiment: broth microdilution MIC (CLSI M07-A9), resazurin; assay type: cell-based; conditions: ATCC25922, 24 h, read-out: MIC Ec-2
Procedure, shortened: as §1

[6] = target: T1, COX-1 (Ovis aries, UniProt P05979); experiment: fluorometric COX-1 inhibitor screening kit assay; assay type: biochemical; conditions: for SI (selectivity index): IC50 (COX-1)/IC50 (COX-2); for IC50: fluorometric kit, 25 °C; for Selectivity: isoform preferred according to SI
T1 construct: purchased Biovision K548-100
T1 sequence (P05979 25-600): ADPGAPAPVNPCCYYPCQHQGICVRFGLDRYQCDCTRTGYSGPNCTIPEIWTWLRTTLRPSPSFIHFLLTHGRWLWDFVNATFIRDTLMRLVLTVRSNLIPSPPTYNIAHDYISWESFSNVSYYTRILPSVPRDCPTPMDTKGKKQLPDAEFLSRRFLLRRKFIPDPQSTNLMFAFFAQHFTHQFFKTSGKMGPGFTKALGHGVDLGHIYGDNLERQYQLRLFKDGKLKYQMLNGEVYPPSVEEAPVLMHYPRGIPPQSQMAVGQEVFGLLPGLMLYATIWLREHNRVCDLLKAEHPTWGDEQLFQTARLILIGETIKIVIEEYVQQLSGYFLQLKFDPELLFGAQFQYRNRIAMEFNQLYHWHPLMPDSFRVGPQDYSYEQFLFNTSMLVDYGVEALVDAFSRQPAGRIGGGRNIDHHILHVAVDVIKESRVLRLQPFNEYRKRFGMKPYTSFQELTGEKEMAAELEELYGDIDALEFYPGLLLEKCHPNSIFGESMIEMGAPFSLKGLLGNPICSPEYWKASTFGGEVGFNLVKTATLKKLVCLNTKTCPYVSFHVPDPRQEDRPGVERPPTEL
Experimental: Inhibitory potency of the compounds against COX-1 and COX-2 enzymes was determined using fluorometric COX-1 and COX-2 inhibitor screening kits (Biovision, Zurich, Switzerland). Experimental protocol was followed as described in the guides of the supplier[47]^,[48]. All of the pipettings in the assay were performed by Biotek Precision robotic system (BioTek Instruments, Inc., Winooski, VT). […] Appropriate two points (T1 and T2) in the linear range of the plot were chosen, and the corresponding fluorescence values (RFU1 and RFU2) were obtained. The slope for all samples, including enzyme control (EC), by dividing the net ΔRFU (RFU2–RFU1) values by the time ΔT (T2–T1) were calculated by using following equation: % Relative inhibition=(Slope of EC-Slope of S/Slope of EC)×100
This initial in vitro assay was done with two concentrations (10^−3 and 10^−4 M) for all compounds. […] The IC50 value was calculated from the plots of enzyme activity against concentrations by applying regression analyses on GraphPad Prism Version 5 (GraphPad Software, La Jolla, CA).
Selectivity indexes (SI) were expressed as IC50 (COX-1)/IC50 (COX-2). Selectivity toward COX-2 decreases as the corresponding SI decreases while selectivity toward COX-1 isoform increases as the corresponding SI decreases.

SMILES	MIC [1] [µg/mL]	MIC Kp [2] [µg/mL]	MIC [3] [µg/mL]	MIC [4] [µg/mL]	MIC [5] [µg/mL]	SI (selectivity index) [6]	IC50 [6] [µM]	Selectivity [6]	melting point [°C]
COc1ccc2sc(SCc3ccc(C(C)C(=O)O)cc3)nc2c1 (stereo not drawn) [Compound 6h, 2-(4-(((5-Methoxybenzo[d]thiazol-2-yl)thio)methyl)phenyl)propanoic acid]	12.5 (≈ 34.8 µM)	6.25 (≈ 17.4 µM)	6.25 (≈ 17.4 µM)	6.25 (≈ 17.4 µM)	12.5 (≈ 34.8 µM)	0.59	1.76	COX-1	166.5 to 168.2
COc1ccc2[nH]c(SCc3ccc(C(C)C(=O)O)cc3)nc2c1 (stereo not drawn) [Compound 6l, 2-(4-(((5-Methoxy-1H-benzo[d]imidazol-2-yl)thio)methyl)phenyl)propanoic acid]	12.5 (≈ 36.5 µM)	6.25 (≈ 18.3 µM)	6.25 (≈ 18.3 µM)	6.25 (≈ 18.3 µM)	12.5 (≈ 36.5 µM)	0.60	1.4	COX-1	175.6 to 178.4
